# Measured values published in patent US6518423B1, “Benzopiperidine derivatives” (Eisai Co., Ltd., priority 1996, dated 2003).
row,melting point,Compound
1,191 to 193 °C,O=C(c1ccccn1)c1nccn1Cc1ccc2c(c1)Nc1nccnc1S2
2,213 to 215 °C,CCOC(=O)/C=C/c1nccn1Cc1ccc2c(c1)Nc1nccnc1S2
3,159 to 162 °C,CS(=O)(=O)N=CNc1ccc(-c2cn(Cc3ccc4c(c3)Nc3nccnc3S4)cn2)cc1
4,> 275 °C,O=c1c2ccccc2[nH]n1Cc1ccc2c(c1)Nc1nccnc1S2
5,65 to 70 °C,O=C(O)CSc1ccc(C(O)c2ccc3c(c2)Nc2nccnc2S3)cn1 (stereo not shown)
6,220 °C (dec.),CN1CC2CN(Cc3ccc4c(c3)Nc3nccnc3S4)CC(C1)C2CC(=O)O (stereo not shown)
7,182 to 185 °C,CC(C)(O)CC1C2CCCC1CN(Cc1ccc3c(c1)Nc1nccnc1S3)C2 (stereo not shown)
8,236 to 238 °C,CS(=O)(=O)NC(=O)Cc1ccc2c(c1)Nc1nccnc1S2
9,264 to 265 °C,c1cnc2c(n1)Nc1cc(Cn3cnc4cncnc43)ccc1S2
10,277 to 280 °C,c1cnc2c(n1)Nc1cc(Cn3cnc4ncncc43)ccc1S2
11,> 280 °C,CN(C)c1ncnc2c1[nH]c(=O)n2Cc1ccc2c(c1)Nc1nccnc1S2
12,> 275 °C,Cc1nc2ncncc2n1Cc1ccc2c(c1)Nc1nccnc1S2
13,78 to 79 °C,CCOC(=O)CCCCCSc1ncnc2c1ncn2Cc1ccc2c(c1)Nc1nccnc1S2
14,> 260 °C (dec.),N/C(Cc1ccc2c(c1)Nc1nccnc1S2)=N\S(N)(=O)=O
15,268 to 269 °C,CC(=O)N1CCN(C(=N)Cc2ccc3c(c2)Nc2nccnc2S3)CC1.Cl
16,154 to 155 °C,CCOC(=O)CCCNC(Cc1ccc2c(c1)Nc1nccnc1S2)=NC#N
17,226 to 228 °C,N/C(=N\[N+](=O)[O-])NCc1ccc2c(c1)Nc1nccnc1S2
18,287 to 288 °C,NC(=O)C1CCN(Cc2ccc3c(c2)Nc2nccnc2O3)CC1
19,260 to 261 °C,O=c1ccccn1Cc1ccc2c(c1)Nc1nccnc1S2
20,> 275 °C,O=c1ccn(Cc2ccc3c(c2)Nc2nccnc2S3)cc1

row,melting point,Compound
1,208 to 210 °C,CNS(=O)(=O)N1CCN(Cc2ccc3c(c2)Nc2nccnc2S3)CC1
2,182 to 185 °C,OCC(O)C1CCN(Cc2ccc3c(c2)Nc2nccnc2S3)CC1 (stereo not shown)
3,142 to 143 °C,CON=C1CCN(Cc2ccc3c(c2)Nc2nccnc2S3)CC1
4,158 to 161 °C,c1cnc2c(n1)Nc1cc(CN3CCC3)ccc1S2
5,182 to 184 °C,c1cnc2c(n1)Nc1cc(CN3CCc4sccc4C3)ccc1S2
6,195 to 198 °C,CNS(=O)(=O)CCC1CCN(Cc2ccc3c(c2)Nc2nccnc2S3)CC1
7,151 to 152 °C,COCN1c2cc(C(=O)OC)ccc2Sc2nccnc21
8,226 to 230 °C (dec.),O=C(CN1CCC(C(=O)O)CC1)NCc1ccc2c(c1)Nc1nccnc1S2
9,114 to 116 °C,N#CC(CCC(=O)O)=C1CCN(Cc2ccc3c(c2)Nc2nccnc2S3)CC1
10,216 to 220 °C,O=C(O)/C=C1/CCCN(Cc2ccc3c(c2)Nc2nccnc2S3)C1
11,240 to 242 °C,O=C(O)CCC(=O)N1CCN(Cc2ccc3c(c2)Nc2nccnc2S3)CC1
12,229 to 230 °C,O=C([O-])C12CC[N+](Cc3ccc4c(c3)Nc3nccnc3S4)(CC1)CC2
13,200 °C (dec.),CC1CN(Cc2ccc3c(c2)Nc2nccnc2S3)CC(C)C1CC(=O)O (stereo not shown)
14,253 to 255 °C,O=C(O)C=C1C2CCCC1CN(Cc1ccc3c(c1)Nc1nccnc1S3)C2
15,262 to 264 °C,O=C(O)C1CCN(CCCc2ccc3c(c2)Nc2nccnc2S3)CC1
16,94 to 98 °C,CC(CCC1CCN(C(=O)NCc2ccc3c(c2)Nc2nccnc2S3)CC1)C(=O)O (stereo not shown)
17,110 to 113 °C,O=C(O)CSCC1CCN(Cc2ccc3c(c2)Nc2nccnc2S3)CC1
18,> 275 °C,CN1c2cc(C#N)ccc2Nc2nccnc21
19,247 to 249 °C,CC(=O)NCc1ccc2c(c1)Nc1nccnc1N2C
20,165 to 166 °C,Cc1cccc2c1Sc1nccnc1N2
